# Entries after “also recorded” stand apart in the source; their conditions may differ.
# How the values were obtained:
# [1] = system: LPS-stimulated timed pregnant mice; assay: LPS-induced preterm birth in timed pregnant mice (in vivo assay)
# Procedure: (§1) In Vivo Assay. A total of 17 timed pregnant embryonic day (E) 15.5 mice, weighing between 28 and 35 g, were used for in vivo studies. The control group (n=7) was injected intraperitoneally (ip) with 50 mg/kg lipopolysaccharide (LPS) (serotype 026:B6; Sigma) dissolved in 0.5 ml PBS at T=0 and 50 μl PEG 400 at T=1 and 7 h. The treatment group (n=7) was also injected ip with the same dose of LPS and then injected with 50 mg/kg SphK inhibitor (SKI II) dissolved in PEG 400 at T=1 and 7 h. The sham group (n=3) was injected ip with 0.5 ml PBS at T=0 and 50 μl PEG 400 at T=1 and 7 h. After injections at T=7 h, mice were continuously observed for time of delivery and number of pups dropped. […] All mice were euthanized by carbon dioxide asphyxiation and necropsied to confirm pregnancy and the number of pups retained in utero was recorded. The retained placentas and uteri were harvested and stored at −80° C. or in 10% neutral buffered formalin at room temperature.
# (§2) Statistical Analysis. For in vivo studies, the effect of SKI II on the percent of LPS stimulated mice delivering and on the percent of pups rescued from spontaneous abortion was evaluated with the Chi square and Fisher exact tests, respectively. Differences in rates of PTB and rates of pups delivered over time were evaluated with log-rank (Mantel-Cox) or Gehan-Breslow-Wilcoxon test. The U-test along with Analysis of Variance (ANOVA) and Tukey's multiple comparison test were used to evaluate differences in inflammatory infiltration in histologic sections. Differences in mean expression of cytokine proteins in immunoblots and in immunohistochemistry were determined using ANOVA with Tukey's multiple comparison test.
# [2] = system: Tnfα, Il-1β, Il-6 and ECE-1 in placentas; assay: Western blot analysis of placental lysates from LPS-stimulated mice; type: in vivo; settings: SKI II treated group vs LPS control group
# Procedure: as §1
# Gel Electrophoresis. Frozen placentas were allowed to thaw on ice. Tissues were homogenized in 0.25 ml ice cold lysis buffer, using a Polytron homogenizer. The samples were homogenized on ice for 2 min at 15 min intervals. This procedure was continued for 2 h and the final homogenates were centrifuged at 10,000×g for 10 min. Volumes of supernatant containing […] of protein based on BCA assay, using bovine serum albumin as standard, were diluted in_NuPAGE® LDS sample buffer and the samples were heated at 95° C. for 5 minutes. Bis-Tris gels were used for protein separation. Gel electrophoresis was carried out in an XCell SureLock Mini-Cell apparatus. The gels were allowed to run for 45 minutes with MOPS running buffer at 125 mA and 200V. Proteins were then transferred to a polyvinylidene difluoride (PVDF) membrane, using an XCell II Blot Module. Transfer was carried out for 2 h on ice at a 170 mA current and a constant voltage of 30 V with NuPAGE transfer buffer
# Western Blot Analysis. […] The membranes were analyzed for different proteins using their respective primary antibodies, i.e. TNFα, IL-1β, IL-6, IL-10 and ECE-1 diluted in the blocker solution overnight at 4° C. […] They were then treated with ECL Plus western blotting detection system and the chemiluminescence produced by the chemical reaction was detected by exposure to an autoradiography film. […] The protein content was quantified using Image J software (from NIH). […]
# (§3) Statistical Analysis. For in vivo studies, the effect of SKI II on the percent of LPS stimulated mice delivering and on the percent of pups rescued from spontaneous abortion was evaluated with the Chi square and Fisher exact tests, respectively. […]
# [3] = system: Tnfα, Il-1β, Il-6 in placental labyrinth; assay: Immunohistochemistry of cytokines in placental labyrinth; type: in vivo, mice; settings: SKI II vs LPS
# Procedure: as §1
# Immunohistochemistry (IHC). Formalin fixed paraffin-embedded tissue sections were used for IHC. The sections were deparaffinized by washing in xylene for 3 min. They were then rehydrated by washing in 100% isopropyl alcohol (2 changes), 95% alcohol, 80% alcohol, 70% alcohol and distilled water for 3 min each. The sections were incubated for 5 min with peroxidase block (3% hydrogen peroxide in water) and washed in distilled water for 3 min. […] Image-Pro Premier DAB analysis software was used for quantification of the results. […]
# as §2, with “The U-test along with Analysis of Variance (ANOVA) and Tukey's multiple comparison test were used to evaluate differences in inflammatory infiltration in histologic sections.” left out
# [4] = system: inflammatory cells (neutrophils) in placental labyrinth; assay: Histology (H & E): inflammatory cell infiltration of placental labyrinth; type: in vivo; settings: SKI II vs LPS-induced mice; P<0.05
# Procedure: as §1, with “The retained placentas and uteri were harvested and stored at −80° C. or in 10% neutral buffered formalin at room temperature.” left out
# Histology. […] The number of polymorphonuclear neutrophils (PMNs) were counted in the three fields and the average value was recorded. Based on the average number of neutrophils per 400× field recorded, the slides were assigned grades as follows: 0:0-5 cells, 1:6-50 cells, 2:51-100 and 3:greater than 100. […]
# as §3
compound,measurement,setting,value
Oc1ccc(Nc2nc(-c3ccc(Cl)cc3)cs2)cc1 [SKI II],Macroscopic congenital anomalies in pups,[1]; 97 pups of LPS control and SKI II groups,no macroscopic congenital anomalies
same,Percent of mice delivered prematurely,"[1]; LPS 50 mg/kg, SKI II 50 mg/kg at T=1 and 7 h, 1 out of 7 mice, 24 h",14%
same,Percent of pups dropped prematurely,"[1]; LPS 50 mg/kg, SKI II 50 mg/kg at T=1 and 7 h, 2 out of 50 pups, 24 h",4%
same,"Rate of pup survival (Kaplan-Meier survival curves, log rank test)","[1]; SKI II treated vs LPS control dams, P<0.0001",statistically significant difference; also recorded: significantly improved
same,"Litter size, fetal growth and development",[1]; observed throughout the study,No significant changes
same,ECE-1 expression in placenta (Western blot),[2],clearly suppressed; also recorded: significantly suppressed
same,Il-1β expression in placental lysates (Western blot),[2]; P<0.05,reduced; also recorded: significantly suppressed
same,Il-6 expression in placental lysates (Western blot),[2]; P<0.05,reduced; also recorded: significantly suppressed
same,Tnfα expression in placental lysates (Western blot),[2]; P<0.05,reduced; also recorded: significantly suppressed
same,Placental labyrinthine level of Il-1β (immunohistochemistry),[3]; P<0.0001,significantly reduced; also recorded: significantly suppressed
same,Placental labyrinthine level of Tnfα (immunohistochemistry),[3]; P<0.0001,significantly reduced; also recorded: significantly suppressed
same,Placental labyrinthine level of Il-6 (immunohistochemistry),[3]; P<0.01,significantly reduced; also recorded: significantly suppressed
same,Inflammatory cell infiltrate in placental labyrinth,[4],significantly reduced; also recorded: subsides significantly

# Reference: patent US20160184276A1, “Sphingosine kinase inhibition for the treatment and prevention of obstetrical disorders” (priority 2014, published 2016)
